The values that follow come from patent US20240391931A1 (Bristol-Myers Squibb Company, priority 2021, published 2024).

Molecules are shown by their SMILES.

Assay [1] deals with T1, HER2 wildtype (WT) protein (Homo sapiens, UniProt P04626).
T1 construct: BT474 and N87 cell lines which endogenously overexpress the HER2 wildtype (WT) protein; endogenous in cells; host or cells: BT474, N87
Nature of the assay: HER2 signaling (pHER2 Tyr1248/total HER2 MSD) in BT474 cells. The format is cell-based. To be noted: 1.5 hr compound, 1% FBS. The procedure:
(§1) In addition to the engineered cell lines, the following cell lines were used: BT474 (human breast carcinoma), N87 (human gastric carcinoma), NCI-H1781 (human lung adenocarcinoma), and A431 (human epidermoid carcinoma); all cell lines were obtained from the American Type Culture Collection (ATCC, Manassas, VA). NCI-H1781 were grown in complete RPMI 1640 (Life Technologies, Carlsbad, CA) supplemented with 15% fetal bovine serum (FBS, Life Technologies, Carlsbad, CA) and 1% Penicillin-Streptomycin (P/S, Life Technologies, Carlsbad, CA). N87 cells were grown in complete RPMI 1640 supplemented with 10% FBS and 1% P/S. BT474 and A431 cells were grown in DMEM (Life Technologies, Carlsbad, CA) supplemented with 10% FBS and 1% P/S. All cells were maintained and propagated in a humidified 5% CO2 incubator at 37° C.
HER2 signaling was assessed in BT474 and N87 cell lines which endogenously overexpress the HER2 wildtype (WT) protein, in NCI-H1781 cells which endogenously expresses a HER2 mutant protein containing a VC insertion in the kinase domain (HER2VC or G776delinsVC), and in engineered cell lines transduced to express the Her2 mutant protein containing the YVMA insertion (Hek293-HER2YVMA and BEAS2B-HER2YVMA).
BT474, N87, and NCI-H1781 were plated in 96-well tissue-culture treated plates (Corning Costar, Sigma-Aldrich) in full media and incubated overnight. Hek293-HER2YVMA and BEAS2B-HER2YVMA cells were plated in 96-well poly-D-lysine treated plates (BD Bioscience, San Jose, CA). For treatment with test compounds, the media was replaced with corresponding low serum media (1% FBS) containing test compound at 1.1, 0.37, 0.12, 0.041, 0.014, 0.005, 0.0014, 0.0005 μM or DMSO control (0.1%). Cells were incubated with compound for 1.5 hr at 37° C. After compound treatment, the media was removed and cells were lysed for 30 min on ice in complete MSD lysis buffer (prepared using MSD base lysis buffer (Meso-Scale Discovery) supplemented with cOmplete, EDTA-free Protease inhibitor cocktail (Roche), Phosphatase Inhibitor Cocktails 2 and 3 (Sigma-Aldrich), and 1 mM PMSF (Sigma-Aldrich)). Lysates were stored at −70° C. until further analysis.
HER2 signaling was evaluated using phospho (Tyr1248)/total ErbB2 whole cell lysate MSD plates (Meso-Scale Discovery, Gaithersburg, MD). The phospho HER2 signal was normalized to total HER2 for each sample; results are reported as % DMSO control. The normalized data was fitted using a sigmoidal curve analysis program (Graph Pad Prism version 6) with variable Hill slope to determine EC50 values.
The HER2 signaling results are provided in Table 4, under columns titled “BT474-pHER2 EC50”, “N87-pHER2 EC50”, and “NCI-H1781-pHER2 EC50”. Hek293-HER2YVMA ins fall under the heading “HEKYVMA-pHER2 EC50”, Ba/F3 HER2YVMA fall under the heading “Ba/F3 YVMA-pHER2 EC50” and BEAS2B-HER2YVMA fall under the heading “BEAS2B YVMA-pHER2 EC50”.

For another assay, the target named is T2, HER2 WT (Homo sapiens, UniProt P04626).
T2 construct: purchased ProQinase, Freiburg, Germany ERBB2 0108-0000-1
Nature of the assay: Enzymatic assay HER2 WT (method a). The following applies: [HER2 WT]=12.5 nM, [ATP]=25 μM, [Peptide 22]=1 μM. It is filed as biochemical. The method, then:
(§2) A 2× stock solution of HER2 WT (ERBB2 0108-0000-1; ProQinase, Freiburg, Germany) corresponding to method a, was prepared as described below. Alternatively, a 2× stock solution of HER2YVMA (custom purification; Viva biotech, Shanghai, China) corresponding to method b, was prepared as described below. For method c, a 2× stock of EGFR (ERBB1 PR7295B, Thermo Fisher, Carlsbad, CA) was prepared as described below. All 2× solutions were prepared in buffer containing 50 mM HEPES, pH 7.5, 10 mM MnCl2, MgCl2, 0.005% Tween 20, 1 mM TCEP. 25 ul of 2× enzyme solution was added to a Seahorse low volume 384-well polypropylene assay plate (201288-100, Seahorse Bioscience, Chicopee, MA) containing 1 μl of compound serially diluted in 50% DMSO. To initiate the reaction, 25 μl of solution containing 2× final concentration of ATP and ProfilerPro Peptide 22 (760366, Perkin Elmer Hopkinton, MA) was added to each well. The reactions were separated on an LC3000 (Caliper Life Sciences) or a LabChip EZReader (Perkin Elmer) in kinetic mode.
(§3) At the conclusion of each assay, the data were exported from the instrument as a .rda file (LC3000) and processed in proprietary software, EZReviewer, which determines the percent of substrate converted to product within a given cycle as (P/P+S)*100 by measuring the amplitude of substrate and product peaks. Cycle time varied with amount of compounds tested between 8 and 12 cycles. Initial velocity (0-3600 s) from each reaction was determined from the slope of a plot of percent conversion at each cycle versus time (seconds). Percent inhibition was determined by dividing the slope of each reaction by the uninhibited control using 100*(1-(x/uninhibited control)). IC50 estimates were obtained by plotting the concentration of inhibitor versus percent inhibition in GraphPad Prism (GraphPad Software, San Diego, CA) using log[inhibitor] versus Response (Variable Slope Model); Y=Min+((Max-Min)/(1+((IC50/x)^Hillslope)))
(§4) • a) [HER2 WT]=12.5 nM, [ATP]=25 μM, [Peptide 22]=1 μM (ATP KMapp˜25 μM) • b) [HER2YVMA]=5 nM, [ATP]=25 μM, [Peptide 22]=1 μM (ATP KMapp˜15 μM) • c) [EGFR WT]=2 nM, [ATP]=1 mM, [Peptide 22]=1 μM (ATP KMapp˜25 μM)

In the next assay the target is HER2YVMA (Homo sapiens, UniProt P04626, INS775YVMA). Nature of the assay: Enzymatic assay HER2YVMA (method b). The format is biochemical. On the set-up: purchased Viva biotech, Shanghai, China custom purification. The following applies: [HER2YVMA]=5 nM, [ATP]=25 μM, [Peptide 22]=1 μM. The method, then: as §2, §3, §4
Another assay has as its target EGFR (Homo sapiens, UniProt P00533). Nature of the assay: EGFR signaling (pEGFR Tyr1068/total EGFR MSD) in A431 cells. It is filed as cell-based. On the set-up: endogenous in cells; host or cells: A431, N87. To be noted: for EC50: A431 cells, read-out: A431 pEGFR EC50; for Selectivity A431 EC50/BT474 EC50: ratio A431 pEGFR EC50 to BT474 pHER2 EC50. The method, then: as §1
A431 Cells were plated in 96-well tissue-culture treated plates in full media for 6 h, then starved with media containing 0.1% FBS for overnight. Media was replaced with low serum media (1% FBS) containing compound at 10, 3.3, 1.1, 0.37, 0.12, 0.041, 0.014, 0.005 μM or DMSO control (0.1%). Cells were incubated for 1.5 hr, then stimulated with 100 ng/mL human EGF (PeproTech, Rocky Hill, NJ) for 10 minutes. Cells were washed with cold PBS, and lysed for 30 min on ice in complete MSD lysis buffer (prepared as described in HER2 Signaling Method); lysates were stored at −70° C. until further analysis. EGFR signaling was evaluated using phospho (Tyr 1068)/total EGFR whole cell lysate kit (Meso-Scale Discovery, Gaithersburg, MD). The phospho EGFR signal was normalized to total EGFR for each sample; results are reported as % DMSO control. The normalized data was fitted using a sigmoidal curve analysis program (Graph Pad Prism version 6) with variable Hill slope to determine EC50 values. The results are provided in Table 4, under column titled “A431-pEGFR EC50”.

Another assay addresses T3, EGFR WT (Homo sapiens, UniProt P00533).
T3 construct: purchased Thermo Fisher, Carlsbad, CA ERBB1 PR7295B
Nature of the assay: Enzymatic assay EGFR WT (method c). It is filed as biochemical. The following applies: [EGFR WT]=2 nM, [ATP]=1 mM, [Peptide 22]=1 μM. The method, then: as §2, §3, §4

HER2YVMA, sequence (P04626 with tags, fused parts or gaps INS775YVMA): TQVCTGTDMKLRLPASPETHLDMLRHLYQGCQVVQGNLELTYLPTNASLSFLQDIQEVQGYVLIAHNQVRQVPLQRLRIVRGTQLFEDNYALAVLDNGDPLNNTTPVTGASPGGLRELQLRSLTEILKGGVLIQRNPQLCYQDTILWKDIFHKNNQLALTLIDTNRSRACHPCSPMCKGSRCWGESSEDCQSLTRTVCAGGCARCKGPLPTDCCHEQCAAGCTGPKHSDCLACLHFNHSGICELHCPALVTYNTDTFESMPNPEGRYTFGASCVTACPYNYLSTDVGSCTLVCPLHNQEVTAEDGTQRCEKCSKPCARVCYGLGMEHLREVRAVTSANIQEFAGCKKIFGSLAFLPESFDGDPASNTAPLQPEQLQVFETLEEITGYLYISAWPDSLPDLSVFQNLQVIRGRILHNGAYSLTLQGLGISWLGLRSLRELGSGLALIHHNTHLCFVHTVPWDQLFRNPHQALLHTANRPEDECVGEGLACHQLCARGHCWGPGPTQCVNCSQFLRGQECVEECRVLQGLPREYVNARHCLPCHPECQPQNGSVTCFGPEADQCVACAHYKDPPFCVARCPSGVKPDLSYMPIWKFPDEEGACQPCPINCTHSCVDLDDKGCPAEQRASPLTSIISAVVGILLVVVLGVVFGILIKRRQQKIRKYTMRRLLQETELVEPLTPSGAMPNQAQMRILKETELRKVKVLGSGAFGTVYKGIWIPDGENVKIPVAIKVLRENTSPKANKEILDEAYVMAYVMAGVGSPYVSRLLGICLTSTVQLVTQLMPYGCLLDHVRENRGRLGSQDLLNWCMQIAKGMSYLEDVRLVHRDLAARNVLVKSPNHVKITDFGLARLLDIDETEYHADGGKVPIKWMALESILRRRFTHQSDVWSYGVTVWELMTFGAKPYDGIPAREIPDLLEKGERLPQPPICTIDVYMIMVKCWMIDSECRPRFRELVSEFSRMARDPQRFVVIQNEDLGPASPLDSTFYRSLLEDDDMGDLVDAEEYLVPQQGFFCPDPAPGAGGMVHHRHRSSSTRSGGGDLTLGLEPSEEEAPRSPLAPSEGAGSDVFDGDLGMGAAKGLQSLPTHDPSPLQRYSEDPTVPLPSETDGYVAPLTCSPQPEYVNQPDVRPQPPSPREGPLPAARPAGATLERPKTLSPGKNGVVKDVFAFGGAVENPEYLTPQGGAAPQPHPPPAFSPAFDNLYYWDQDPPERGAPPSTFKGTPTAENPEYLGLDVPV
T2 sequence (P04626 23-1255): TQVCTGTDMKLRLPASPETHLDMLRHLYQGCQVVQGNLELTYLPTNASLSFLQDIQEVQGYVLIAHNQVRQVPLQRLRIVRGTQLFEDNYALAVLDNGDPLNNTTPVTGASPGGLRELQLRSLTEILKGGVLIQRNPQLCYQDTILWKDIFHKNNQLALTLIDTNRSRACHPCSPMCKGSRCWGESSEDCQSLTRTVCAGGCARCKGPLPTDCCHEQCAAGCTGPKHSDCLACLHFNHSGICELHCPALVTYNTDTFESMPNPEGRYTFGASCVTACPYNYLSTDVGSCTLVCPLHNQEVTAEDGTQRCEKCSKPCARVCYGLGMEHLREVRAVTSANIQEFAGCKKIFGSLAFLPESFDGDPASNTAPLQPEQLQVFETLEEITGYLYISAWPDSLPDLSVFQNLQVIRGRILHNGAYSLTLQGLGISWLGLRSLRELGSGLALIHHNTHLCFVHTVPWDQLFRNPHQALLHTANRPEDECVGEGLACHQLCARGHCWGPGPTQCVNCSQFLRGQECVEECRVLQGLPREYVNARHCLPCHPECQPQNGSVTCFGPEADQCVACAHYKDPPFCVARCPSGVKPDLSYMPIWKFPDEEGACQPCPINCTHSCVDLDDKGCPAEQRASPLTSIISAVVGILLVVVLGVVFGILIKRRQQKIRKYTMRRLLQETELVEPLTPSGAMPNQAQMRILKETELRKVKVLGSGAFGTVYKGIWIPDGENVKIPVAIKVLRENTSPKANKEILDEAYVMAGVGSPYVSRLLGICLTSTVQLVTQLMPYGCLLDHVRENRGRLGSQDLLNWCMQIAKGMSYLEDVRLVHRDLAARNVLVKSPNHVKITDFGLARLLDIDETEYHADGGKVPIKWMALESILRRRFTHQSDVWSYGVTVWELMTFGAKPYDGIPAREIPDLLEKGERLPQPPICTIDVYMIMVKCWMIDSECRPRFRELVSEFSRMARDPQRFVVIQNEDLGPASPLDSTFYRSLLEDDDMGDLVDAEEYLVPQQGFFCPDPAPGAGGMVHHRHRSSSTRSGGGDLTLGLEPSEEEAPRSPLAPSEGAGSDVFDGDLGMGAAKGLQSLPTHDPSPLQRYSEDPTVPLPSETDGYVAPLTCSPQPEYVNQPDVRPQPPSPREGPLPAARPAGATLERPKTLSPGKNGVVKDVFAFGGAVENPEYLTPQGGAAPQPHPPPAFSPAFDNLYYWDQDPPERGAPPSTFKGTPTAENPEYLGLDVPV
T1 sequence (P04626 23-1255): as above
EGFR, sequence (P00533 25-1210): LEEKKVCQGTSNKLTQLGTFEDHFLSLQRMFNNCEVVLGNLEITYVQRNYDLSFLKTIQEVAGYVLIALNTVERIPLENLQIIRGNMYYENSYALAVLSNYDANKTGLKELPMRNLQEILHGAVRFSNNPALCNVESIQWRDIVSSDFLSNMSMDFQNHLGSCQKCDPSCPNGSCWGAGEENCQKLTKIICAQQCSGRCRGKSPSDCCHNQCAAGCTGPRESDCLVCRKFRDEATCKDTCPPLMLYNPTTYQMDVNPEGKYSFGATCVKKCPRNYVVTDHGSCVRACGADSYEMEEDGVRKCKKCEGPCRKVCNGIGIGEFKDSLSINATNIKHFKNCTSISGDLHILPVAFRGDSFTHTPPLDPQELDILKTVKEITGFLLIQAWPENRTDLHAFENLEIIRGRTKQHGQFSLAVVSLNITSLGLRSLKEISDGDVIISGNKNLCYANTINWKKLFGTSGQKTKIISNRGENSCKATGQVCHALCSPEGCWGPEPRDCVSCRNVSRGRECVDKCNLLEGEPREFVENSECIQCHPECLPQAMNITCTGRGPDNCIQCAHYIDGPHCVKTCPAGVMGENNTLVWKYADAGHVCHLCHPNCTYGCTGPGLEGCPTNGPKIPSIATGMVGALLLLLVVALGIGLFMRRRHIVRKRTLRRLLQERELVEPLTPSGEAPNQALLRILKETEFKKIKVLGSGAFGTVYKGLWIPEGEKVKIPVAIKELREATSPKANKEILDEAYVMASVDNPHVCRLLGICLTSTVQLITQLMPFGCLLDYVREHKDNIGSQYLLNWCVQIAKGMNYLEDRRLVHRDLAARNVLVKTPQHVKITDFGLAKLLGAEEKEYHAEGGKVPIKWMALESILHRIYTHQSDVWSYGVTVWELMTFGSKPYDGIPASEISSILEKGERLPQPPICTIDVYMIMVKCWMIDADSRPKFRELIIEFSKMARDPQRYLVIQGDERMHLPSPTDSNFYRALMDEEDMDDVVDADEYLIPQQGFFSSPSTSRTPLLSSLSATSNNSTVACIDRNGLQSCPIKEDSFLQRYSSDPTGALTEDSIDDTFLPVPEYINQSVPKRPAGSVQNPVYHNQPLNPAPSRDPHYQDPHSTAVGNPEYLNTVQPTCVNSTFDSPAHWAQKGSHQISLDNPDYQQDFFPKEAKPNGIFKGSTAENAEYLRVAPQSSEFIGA

Turning to `Cc1ccc(Oc2ccc(Nc3ncnc4sc5c(c34)CCN(C(=O)/C=C/CN3CCOC[C@@H]3C)C5)cc2C)cn1` [Compound 32], the results for the EC50 (in assay [1]; on EGFR) were below 100 nM and 100 to 1000 nM, respectively. In addition, the IC50 – broadly, the midpoint of a concentration-inhibition curve – against HER2 WT was below 100 nM; against HER2YVMA, 100 to 1000 nM; against EGFR WT, above 10 µM. Also, the “Selectivity A431 EC50/BT474 EC50” value at EGFR was “B (B: ≥ 20 and < 100)”.

`Cc1ccc(Oc2ccc(Nc3ncnc4sc5c(c34)CCN(C(=O)/C=C/CN3CC4CCC(C4)C3)C5)cc2C)cn1` [Compound 27]: at EGFR, the EC50 (commonly the concentration that produces a half-maximal response) is below 100 nM; the “Selectivity A431 EC50/BT474 EC50” value was “B (B: ≥ 20 and < 100)”. At EGFR WT, the IC50 lay within 1 to 10 µM.

For `Cc1ccc(Oc2ccc(Nc3ncnc4sc5c(c34)CCN(C(=O)/C=C/CN3CC4CC(C4)C3)C5)cc2C)cn1` [Compound 36], the EC50 (in assay [1]; on EGFR) was below 100 nM throughout. The IC50 on HER2 WT was below 100 nM; against HER2YVMA, below 100 nM; on EGFR WT it was 1 to 10 µM. Moreover, on EGFR, the “Selectivity A431 EC50/BT474 EC50” value is “D (D: ≥ 5 and < 10)”.

As for `C=CC(=O)N1CCc2c(sc3ncnc(Nc4ccc(Oc5ccc6ncnn6c5)c(C)c4)c23)C1` [Compound 2, 1-(4-((4-([1,2,4]triazolo[1,5-a]pyridin-6-yloxy)-3-methylphenyl)amino)-5,8-dihydropyrido[4′,3′:4,5]thieno[2,3-d]pyrimidin-7(6H)-yl)prop-2-en-1-one], the concentration for half-maximal inhibition (IC50) at HER2 WT is below 100 nM; on HER2YVMA it was below 100 nM; at EGFR WT, 1 to 10 µM.

Regarding `Cc1ccc(Oc2ccc(Nc3ncnc4sc5c(c34)CCN(C(=O)/C=C/CN3CCOC(C)(C)C3)C5)cc2C)cn1` [Compound 28], the EC50 (in assay [1]; on EGFR) was below 100 nM each time. Also, the IC50 on HER2 WT is below 100 nM; on HER2YVMA, 100 to 1000 nM; against EGFR WT, above 10 µM. Further, at EGFR, the “Selectivity A431 EC50/BT474 EC50” value is “C (C: ≥ 10 and < 20)”.

For `Cc1ccc(Oc2ccc(Nc3ncnc4sc5c(c34)CCN(C(=O)/C=C/CN3CCOCC3(C)C)C5)cc2C)cn1` [Compound 29], the EC50 (in assay [1]; at EGFR) was below 100 nM in each case. Moreover, the IC50 is below 100 nM against HER2 WT, below 100 nM against HER2YVMA and above 10 µM on EGFR WT. Also, at EGFR, the “Selectivity A431 EC50/BT474 EC50” value is “C (C: ≥ 10 and < 20)”.

`Cc1ccc(Oc2ccc(Nc3ncnc4sc5c(c34)CCN(C(=O)/C=C/CN3CCOCC34CCC4)C5)cc2C)cn1` [Compound 31]: the values for the EC50 (in assay [1]; on EGFR) were below 100 nM and 100 to 1000 nM, respectively. The IC50 was below 100 nM at HER2 WT, 100 to 1000 nM against HER2YVMA and above 10 µM at EGFR WT. In addition, at EGFR, the “Selectivity A431 EC50/BT474 EC50” value is “D (D: ≥ 5 and < 10)”.

On to `Cc1ccc(Oc2ccc(Nc3ncnc4sc5c(c34)CCN(C(=O)/C=C/CN3CCN4CCC3CC4)C5)cc2C)cn1` [Compound 116], for which the IC50 on HER2 WT is 1000 to 10000 nM; at HER2YVMA, 1000 to 10000 nM; against EGFR WT, above 10 µM.

As to `Cc1ccc(Oc2ccc(Nc3ncnc4sc5c(c34)CCN(C(=O)/C=C/CN3CCOC4(CCC4)C3)C5)cc2C)cn1` [Compound 30], the EC50 in assay [1] was below 100 nM; on EGFR, 100 to 1000 nM. Also, the IC50 was below 100 nM against HER2 WT, 100 to 1000 nM against HER2YVMA and above 10 µM on EGFR WT. Also, on EGFR, the “Selectivity A431 EC50/BT474 EC50” value is recorded as “A (A: ≥100)”.

With `C[C@H]1COCCN1C/C=C/C(=O)N1CCc2c(sc3ncnc(Nc4ccc(Oc5ccc6ncnn6c5)c(Cl)c4)c23)C1` [Compound 90], the IC50 at HER2 WT is 100 to 1000 nM; on HER2YVMA, 100 to 1000 nM; against EGFR WT, above 10 µM.

Turning to `Cc1cc(Nc2ncnc3sc4c(c23)CCN(C(=O)/C=C/CN2CCOC[C@@H]2C)C4)ccc1Oc1ccc2ncnn2c1` [Compound 79], the IC50 against HER2 WT is 100 to 1000 nM; against HER2YVMA it was 100 to 1000 nM; against EGFR WT, above 10 µM.
